# Measured values from patent US9567586B2, “EpCAM aptamer for detection of cancer stem cells” (DEAKIN UNIVERSITY, priority 2012, dated 2017).
# Where two headings read alike, the source gives them in different places.
# Assays:
# [1] = target: T1, native EpCAM expressed on the cell surface (Homo sapiens, UniProt P16422); assay: Binding affinities of EpCAM aptamers by flow cytometry; settings: read-out: KD (±SEM)
# T1 construct: host or cells: T47D, MCF7, MDA-MB-231, HT-29 (EpCAM-positive); U118MG (EpCAM-negative control)
# T1 sequence (P16422 24-314): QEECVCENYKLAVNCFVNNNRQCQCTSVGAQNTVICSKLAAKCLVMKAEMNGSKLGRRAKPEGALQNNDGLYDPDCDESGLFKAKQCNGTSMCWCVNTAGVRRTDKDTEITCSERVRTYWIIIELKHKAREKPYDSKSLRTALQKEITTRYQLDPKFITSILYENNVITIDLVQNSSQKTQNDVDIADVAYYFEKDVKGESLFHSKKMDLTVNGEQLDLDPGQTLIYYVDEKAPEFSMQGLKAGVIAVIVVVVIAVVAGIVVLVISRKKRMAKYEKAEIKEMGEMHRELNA
# Method: (§1) Cells were harvested at 80% confluence with trypsin digestion and resuspended in washing buffer (DPBS with 5 mM MgCl2) and enumerated. Following centrifugation (1000×g for 5 min), the cell pellet was resuspended in assay buffer (DPBS supplemented with 5 mM MgCl2, 0.1 mg/ml tRNA, 0.1 mg/ml salmon sperm DNA, 0.2% [w/v] sodium azide, and 5% FCS) and diluted to 1×10^6/mL. The blocking step was carried out at 4′C. The binding of the aptamers was carried out at 37′C for 30 min or 4′C for 1 h, with the final concentration of magnesium chloride being 2.5 mM in all binding assays.
# (§2) The equilibrium dissociation constant (K′d) of successful 2′-fluoropyrimidine RNA aptamer species to native EpCAM expressed on the cell surface was determined using flow cytometry with EpCAM-positive and -negative cell lines and a negative control (2-O-methyl-pyrimidine) aptamer (5′-DY647-mGCmGACUmGmGUUmACCCmGmGUCmGdT-3′) (SEQ ID NO:13). Kato III or U118MG cells (5×10^5) were first incubated with assay buffer followed by two washes with binding buffer prior to incubation with serial concentrations (approximately 10-fold above and below the apparent K′d) of FITC-labelled aptamer in a 100 μL assay buffer for 1 h on ice. The cells were washed three times, resuspended in 150 μL assay buffer containing 2.5 mM MgCl2 and subjected to flow cytometric analyses. The FITC-labelled unselected library was used as another negative control. The mean fluorescence intensity (MFI) of the unselected library was subtracted from that of the aptamer-target cell to generate the MFI of specific binding. The K′d for each aptamer was determined by Scatchard analysis according to the equation: [Bound aptamer]/[aptamer]=−(1/KD)×[bound aptamer]+([T]tol/KD) where [T]tot represents the total target concentration. Design and Generation of EpCAM Aptamer-siRNA Chimera
# (§3) The binding affinities of both aptamers have been characterised against all five cell lines used in this study by flow cytometry, and the results are shown in Table 1.
# [2] = test system: native EpCAM expressed on the cell surface; assay: as above; parameters: species or system human; settings: U118MG cells (EpCAM negative); read-out: KD (±SEM)
# Method: as §1, §2, §3
# [3] = test system: HEK293T sphere that does not express EpCAM; assay: Penetration of HEK293T sphere (specificity); assay type: cell-based, human; settings: 4 h incubation, further 24 h culture
# Method: After four hour incubation with EpCAM antibody or aptamer 23 separately, the tumor spheres were washed twice with PBS and were cultured for a further 24 h followed by confocal microscopy. Panel A: fluorescence image for aptamer 23. Panel B: phase contrast for tumor sphere. Panel C: fluorescence image for anti-EpCAM antibody. Panel D: phase contrast image for tumour sphere.
# To study the ability of EpCAM aptamer or antibody to penetrate tumors, the inventors used a three-dimensional in vitro tumor sphere model. […] After incubating for the indicated time, the spheres were washed twice with PBS and imaged via fluorescence confocal microscopy. A phase contrast image of the sphere was also taken for each sample. […] A retention study was performed whereby the tumour spheres were incubated with EpCAM antibody, aptamer-23 or control aptamer for 4 h, after washing with PBS twice, the tumor spheres were incubated with the culture medium for a further 24 h followed by confocal microscopy.
Substance,Kd ([1]; HT29 cells) [nM],Kd ([1]; MCF7 cells) [nM],Kd ([1]; MDA-MB-231 cells) [nM],Kd ([1]; T47D cells) [nM],Kd [2] [nM],binding to HEK293T sphere [3]
"5′-ACGUAUCCCUUUUCGCGUA-3′ (RNA aptamer, fluorescent dye conjugate used, modifications not given here, further chemistry not given here) [compound 23]",37 ± 23.6,63.7 ± 40.4,86.7 ± 68.5,41.2 ± 29.2,> 1000,minimal binding
"5′-DY647-mGCmGACUmGmGUUmACCCmGmGUCmGdT-3′ (GCGACUGGUUACCCGGUCGN; 5' DY647, 2'-O-methyl, 3' dT, further chemistry not given here) [Control]",837 ± 265,> 1000,> 1000,> 1000,> 1000,
